The text below walks through data of patent US20250213701A1, “MEDICAMENT FOR TREATING HUMAN TUMOR BASED ON ERF3A-TARGETING PROTEOLYSIS MECHANISM” (SUZHOU DEGEN BIO-MEDICAL CO., LTD., priority 2022, published 2025).

By IC50 is commonly meant the concentration that gives 50% inhibition. Read a high IC50 as a need for much substance.

Holding throughout (format): cell-based, human
Experiment [1] deals with VCaP cells. Nature of the experiment: Anti-proliferative toxicity against prostate cancer cell line Vcap (CCK8). As to conditions: 3 days, CCK8. The gist of the method: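 VCaP cells (DMEM, 10% FBS) seeded 20000 cells/well, cultured 72 h, then exposed in triplicate to compound at final well concentrations of 0.00001–0.16 μM for 3 days at 37 °C, 5% CO2. Viability by CCK8, 1–4 h at 37 °C, absorbance at 450 nm.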

In experiment [2] the test system is 22Rv1 cells. Nature of the experiment: Anti-proliferative toxicity against prostate cancer cell line 22Rv1 (CCK8). Conditions: 3 days, CCK8. The gist of the method:
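22Rv1 cells pre-cultured for 48 h, then exposed to compounds at 0.00001-1.0 μM final, in triplicate, for 3 days. Viability read by CCK8 absorbance at 450 nm after 1-4 h at 37 °C.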

The subject of experiment [3] is PC-3 cells. Nature of the experiment: Anti-proliferative toxicity against prostate cancer cell line PC-3 (CCK8). As to conditions: 3 days. The gist of the method:
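PC-3 cells (4000/well, pre-cultured 24 h) exposed in triplicate to compound at final 0.00001-1.0 μM for 3 days at 37 °C, 5% CO2. Viability read by CCK8, 1-4 h at 37 °C, absorbance at 450 nm.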

Take `CN(c1cccc(NC(=O)[C@H]2CC[C@H]3[C@@H]4CC[C@H]5NC(=O)C=C[C@]5(C)[C@H]4CC[C@]23C)c1)[C@@H]1CCC[C@@H](Nc2cccc3c2C(=O)N(C2CCC(=O)NC2=O)C3=O)C1` (stereo partly drawn) [C80, N-(3-(N—(N-methyl-N-(4-(2-(3-(2,6-dioxopiperidine))-isoindole-1,3-dione))-1R,3R-cyclohexanediamine))phenyl)-3-oxo-4-aza-5α-androst-1-ene-17β-carboxamide]: the IC50 lay in the range of 0.1 to 10 nM in experiment [1] (Homo sapiens, 72 h); 0.1 to 10 nM in experiment [2] (Homo sapiens, 72 h); 10 to 1000 nM in experiment [3] (Homo sapiens, 72 h).

As to `C[C@]12CCC(=O)N[C@@H]1CC[C@@H]1[C@@H]2CC[C@]2(C)[C@@H](C(=O)Nc3cccc(N[C@@H]4CCC[C@@H](Nc5cccc6c5C(=O)N(C5CCC(=O)NC5=O)C6=O)C4)c3)CC[C@@H]12` (stereo partly drawn) [C81, N-(3-(N—(N-(4-(2-(3-(2,6-dioxopiperidine))-isoindole-1,3-dione))-1R,3R-cyclohexanediamine))phenyl)-3-oxo-4-aza-5α-androstane-17β-carboxamide], the results for the IC50 in experiment [1], in experiment [2] and in experiment [3] were 0.1 to 10 nM, 0.1 to 10 nM and 10 to 1000 nM, respectively.

Take “N-(3-(N—(N-(4-(2-(3-(2,6-dioxopiperidine))-isoindole-1,3-dione))-6S-methyl-1S,3R-cyclohexanediamine))phenyl)-3-oxo-4-aza-5α-androst-1-ene-17β-carboxamide and N-(3-(N—(N-(4-(2-(3-(2,6-dioxopiperidine))-isoindole-1,3-dione))-4R-methyl-1R,3S-cyclohexanediamine))phenyl)-3-oxo-4-aza-5α-androst-1-ene-17β-carboxamide [C70]”: the values for the IC50 in experiment [1], in experiment [2] and in experiment [3] were 0.1 to 10 nM, 0.1 to 10 nM and 10 to 1000 nM, respectively.

With “N-(3-(N—(N-(4-(2-(3-(2,6-dioxopiperidine))-isoindole-1,3-dione))-(1R,4S)-bicyclo[2,2,1]heptane-2R,6R-diamine))phenyl)-3-oxo-4-aza-5α-androst-1-ene-17β-carboxamide and N-(3-(N—(N-(4-(2-(3-(2,6-dioxopiperidine))-isoindole-1,3-dione))-(1S,4R)-bicyclo[2,2,1]heptane-2R,6R-diamine))phenyl)-3-oxo-4-aza-5α-androst-1-ene-17β-carboxamide [C71]”, the concentration for half-maximal inhibition (IC50) in experiment [1] was 10 to 1000 nM; in experiment [2], 10 to 1000 nM; in experiment [3], over 1000 nM.

Take “N-(3-(N—(N-(4-(2-(3-(2,6-dioxopiperidine))-isoindole-1,3-dione))-(1R,4S)-bicyclo[2,2,2]octane-2R,6R-diamine))phenyl)-3-oxo-4-aza-5α-androst-1-ene-17β-carboxamide and N-(3-(N—(N-(4-(2-(3-(2,6-dioxopiperidine))-isoindole-1,3-dione))-(1S,4R)-bicyclo[2,2,2]octane-2R,6R-diamine))phenyl)-3-oxo-4-aza-5α-androst-1-ene-17β-carboxamide [C72]”: the IC50 was 10 to 1000 nM in experiment [1], 10 to 1000 nM in experiment [2] and over 1000 nM in experiment [3].

“N-(3-(N—(N-(4-(2-(3-(2,6-dioxopiperidine))-isoindole-1,3-dione))-(1R,5S)-bicyclo[3,2,2]nonane-7R,8R-diamine))phenyl)-3-oxo-4-aza-5α-androst-1-ene-17β-carboxamide and N-(3-(N—(N-(4-(2-(3-(2,6-dioxopiperidine))-isoindole-1,3-dione))-(1S,5R)-bicyclo[3,2,2]nonane-7R,8R-diamine))phenyl)-3-oxo-4-aza-5α-androst-1-ene-17β-carboxamide [C73]”: the IC50 in experiment [1] is 10 to 1000 nM; in experiment [2], 10 to 1000 nM; in experiment [3], over 1000 nM.
